Values of other authors in patent publication US20100004582A1, “Wide-Area Parasystemic Treatment of Skin Related Conditions” (PANTEC BIOSOLUTIONS AG, priority 2006, published 2010).

Test system: psoriasis
Details: conventional efalizumab treatment, not via porated skin

For efalizumab, the “patients in whom treatment attenuated the disease” value is given as 22-28 % of patients.
